Active and inactive are the calls of the source. The calls are words filed in the database; no cut-off is given here.
Tests used:
[1] = molecular target: Glucagon-like peptide 1 receptor (Homo sapiens) (UniProt P43220); assay: Positive allosteric modulation of human GLP-1 receptor in HEK cells expressing luciferase2P assessed as cAMP level incubated for 4 hrs by luciferase based assay relative to GLP-1; format: functional, cell-based; design: concentration or dose not given beside the values; conditions: filed as positive allosteric modulator
[2] = molecular target: Glucagon-like peptide 1 receptor (Homo sapiens) (UniProt P43220); assay: Positive allosteric modulation of human GLP-1 receptor in HEK cells expressing luciferase2P assessed as fold increase in GLP-1R activity incubated for 4 hrs in presence of GLP-1 by luciferase based assay relative to GLP-1 alone; format: cell-based; conditions: filed as positive allosteric modulator
[3] = Induction of glucose dependent insulin secretion in rat INS-1 832/13 cells expressing GLP-1R assessed as fold increase at 5 uM starved for 2 hrs in KRB buffer followed by 16.7 mM of glucose addition and measured after 90 mins in presence of GLP-1 by ELISA; format: functional, INS1(832/13); conditions: 1.5 h
[4] = test system: Mus musculus; assay: (§1) Anti-diabetic activity against overnight-fasted male CD1 mouse assessed as reduction in blood glucose concentration at 10 to 30 mg/kg, ip preadministered with compound for 45 mins followed by 2.5 g/kg dextrose addition and measured after 60 mins by iGTT test relative to control; format: functional; design: scale not given: the % may be the effect or the level left; conditions: dose 10-30 mg/kg, time 105 min, 1.75 h
[5] = test system: Mus musculus; assay: Anti-diabetic activity against overnight-fasted male CD1 mouse assessed as reduction in blood glucose concentration at 5 mg/kg, ip preadministered with compound for 45 mins followed by 2.5 g/kg dextrose addition and measured after 60 mins by iGTT test; format: functional, organism-based; conditions: time 105.0 min
[6] = test system: Mus musculus; assay: Anti-diabetic activity against overnight-fasted male CD1 mouse assessed as reduction in blood glucose concentration at 10 mg/kg, ip preadministered with compound for 45 mins followed by 2.5 g/kg dextrose addition and measured after 60 mins by iGTT test; format: functional, organism-based; conditions: time 105.0 min
[7] = molecular target: Glucagon-like peptide 1 receptor (Homo sapiens) (UniProt P43220); assay: Positive allosteric modulation of human GLP-1 receptor in HEK cells expressing luciferase2P at 5 uM incubated for 4 hrs in presence of varying concentrations of GLP-1 by luciferase based assay; format: cell-based; conditions: filed as positive allosteric modulator
[8] = test system: INS1(832/13); assay: Induction of glucose dependent insulin secretion in rat INS-1 832/13 cells expressing GLP-1R at 5 uM starved for 2 hrs in KRB buffer followed by glucose addition and measured after 90 mins by ELISA; format: functional, cell-based
[9] = test system: Mus musculus; assay: Anti-diabetic activity against overnight-fasted male CD1 mouse assessed as reduction in blood glucose concentration at 5 to 30 mg/kg, ip preadministered with compound for 45 mins followed by 2.5 g/kg dextrose addition and measured after 60 mins by iGTT test; format: functional, organism-based; conditions: dose 5-30 mg/kg, time 105.0 min
[10] = molecular target: Glucagon-like peptide 1 receptor (Homo sapiens) (UniProt P43220); assay: Positive allosteric modulation of human GLP-1 receptor in HEK cells expressing luciferase2P incubated for 4 hrs in presence of 10 nM of GLP-1 by luciferase based assay; format: cell-based; conditions: filed as positive allosteric modulator, dose 0.78-100 µM
[11] = molecular target: T1, Gastric inhibitory polypeptide receptor (Homo sapiens) (UniProt P48546); assay: Positive allosteric modulation of GIPR (unknown origin) transfected in HEK cells expressing luciferase2P assessed as increase in luciferase activity; format: cell-based; conditions: filed as positive allosteric modulator
T1 sequence (whole entry): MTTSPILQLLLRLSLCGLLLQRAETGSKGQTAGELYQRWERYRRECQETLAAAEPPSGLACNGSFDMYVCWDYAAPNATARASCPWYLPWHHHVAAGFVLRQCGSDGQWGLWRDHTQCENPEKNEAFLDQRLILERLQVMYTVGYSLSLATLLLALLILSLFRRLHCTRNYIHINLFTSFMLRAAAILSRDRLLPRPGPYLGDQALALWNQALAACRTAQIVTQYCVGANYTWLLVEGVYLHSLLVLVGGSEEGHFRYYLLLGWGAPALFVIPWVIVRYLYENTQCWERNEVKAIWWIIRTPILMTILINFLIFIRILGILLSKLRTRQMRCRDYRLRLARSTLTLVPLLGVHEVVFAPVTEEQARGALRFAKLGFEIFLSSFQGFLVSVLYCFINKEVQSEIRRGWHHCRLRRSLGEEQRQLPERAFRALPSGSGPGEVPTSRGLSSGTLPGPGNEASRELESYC

[12] = molecular target: Glucagon receptor (Homo sapiens) (UniProt P47871); assay: Positive allosteric modulation of glucagon receptor (unknown origin) transfected in HEK cells expressing luciferase2P assessed as increase in luciferase activity; format: cell-based; conditions: filed as positive allosteric modulator
[13] = test system: Mus musculus; assay: Anti-diabetic activity against overnight-fasted male CD1 mouse assessed as reduction in blood glucose concentration at 10 to 30 mg/kg, ip preadministered with compound for 45 mins followed by 2.5 g/kg dextrose addition and measured after 30 mins by iGTT test; format: functional, organism-based; conditions: dose 10-30 mg/kg, time 75.0 min
[14] = test system: Mus musculus; assay: as §1, with “at 10 mg/kg, ip” for “at 10 to 30 mg/kg, ip”, “60 mins in the presence of sitagliptin by iGTT” for “60 mins by iGTT”; format: functional; design: scale not given: the % may be the effect or the level left; conditions: time 105 min, 1.75 h
[15] = molecular target: T2, Vasoactive intestinal polypeptide receptor 1 (Homo sapiens) (UniProt P32241); assay: Positive allosteric modulation of VIPR1 (unknown origin) transfected in HEK cells expressing luciferase2P assessed as increase in luciferase activity; format: cell-based; conditions: filed as positive allosteric modulator
T2 sequence (whole entry): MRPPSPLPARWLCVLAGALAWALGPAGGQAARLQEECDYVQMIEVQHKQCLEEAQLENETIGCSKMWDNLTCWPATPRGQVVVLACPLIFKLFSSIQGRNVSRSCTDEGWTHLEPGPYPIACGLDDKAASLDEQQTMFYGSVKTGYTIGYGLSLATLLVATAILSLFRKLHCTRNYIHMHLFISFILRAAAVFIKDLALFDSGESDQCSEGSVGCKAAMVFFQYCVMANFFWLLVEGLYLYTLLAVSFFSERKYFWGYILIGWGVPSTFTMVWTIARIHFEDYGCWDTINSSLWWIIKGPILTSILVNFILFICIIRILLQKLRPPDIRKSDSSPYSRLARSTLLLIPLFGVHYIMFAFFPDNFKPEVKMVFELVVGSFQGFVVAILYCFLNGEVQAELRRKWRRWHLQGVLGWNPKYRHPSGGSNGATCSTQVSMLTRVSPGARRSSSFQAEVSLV

Sequence of Glucagon-like peptide 1 receptor (Homo sapiens) (P43220 whole entry): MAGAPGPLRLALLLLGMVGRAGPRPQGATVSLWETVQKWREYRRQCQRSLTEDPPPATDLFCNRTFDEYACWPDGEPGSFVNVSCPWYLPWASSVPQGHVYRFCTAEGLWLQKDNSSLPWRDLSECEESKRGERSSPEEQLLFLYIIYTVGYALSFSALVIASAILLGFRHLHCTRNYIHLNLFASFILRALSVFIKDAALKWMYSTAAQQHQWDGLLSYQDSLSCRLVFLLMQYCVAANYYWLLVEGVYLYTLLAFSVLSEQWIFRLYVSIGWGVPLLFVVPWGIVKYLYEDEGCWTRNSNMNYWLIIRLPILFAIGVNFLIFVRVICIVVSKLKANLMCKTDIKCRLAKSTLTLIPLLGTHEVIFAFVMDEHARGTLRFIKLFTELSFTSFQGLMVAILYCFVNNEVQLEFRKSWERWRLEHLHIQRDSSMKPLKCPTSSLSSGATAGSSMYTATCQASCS
Sequence of Glucagon receptor (Homo sapiens) (P47871 whole entry): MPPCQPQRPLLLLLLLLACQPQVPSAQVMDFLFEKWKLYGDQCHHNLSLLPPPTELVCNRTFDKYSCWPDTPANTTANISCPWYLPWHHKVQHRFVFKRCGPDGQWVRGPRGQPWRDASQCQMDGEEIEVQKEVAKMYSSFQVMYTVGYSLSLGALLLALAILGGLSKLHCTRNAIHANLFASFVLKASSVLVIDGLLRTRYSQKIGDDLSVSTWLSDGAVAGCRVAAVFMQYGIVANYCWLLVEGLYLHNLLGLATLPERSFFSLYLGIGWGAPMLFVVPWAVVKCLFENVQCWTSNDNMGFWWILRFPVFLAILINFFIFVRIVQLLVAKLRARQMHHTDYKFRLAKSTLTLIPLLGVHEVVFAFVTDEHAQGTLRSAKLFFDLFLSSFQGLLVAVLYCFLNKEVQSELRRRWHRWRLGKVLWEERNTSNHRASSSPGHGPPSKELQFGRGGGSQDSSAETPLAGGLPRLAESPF

SMILES | Activity [1] [%] | fold change (FC) [2] | further results
CC(=O)N1CCc2c(sc(N)c2C(=O)c2ccccc2)C1 | 231 | > 2 | 
CCOC(=O)c1c(N)sc2c1CCC(C)(C)C2 | 164 | > 2 | 
Cc1ccc(C(=O)c2c(N)sc3c2CCC(C)(C)C3)cc1 | 268 | > 2 | fold change (FC) [3]: >2; Activity [4]: 50%; Activity [5]: Active; Activity [6]: Active; Activity [7]: Active; Activity [8]: Active; Activity [9]: Active; Activity [10]: Dose-Dependent Effect; Activity [11]: Active; Activity [12]: Active; Activity [13]: Active; Activity [14]: ~75%; Activity [15]: Active
CC(=O)N1CCc2c(sc(N)c2C(=O)c2ccc(C)cc2)C1 | 196 | > 2 | 
C=CCOC(=O)N1CCc2c(sc(N)c2C(=O)c2ccccc2)C1 | 247 | > 2 | fold change (FC) [3]: >2; Activity [7]: Active; Activity [8]: Active; Activity [10]: Dose-Dependent Effect
CCOC(=O)c1c(N)sc2c1CCSC2 | 192 | > 2 | 
Cc1ccc(C(=O)c2c(N)sc3c2CCN(C(=O)OCc2ccccc2)C3)cc1 | 98.1 | > 2 | 
CCOC(=O)N1CCc2c(sc(N)c2C(=O)c2ccccc2)C1 | 233 | > 2 | fold change (FC) [3]: >2; Activity [7]: Active; Activity [8]: Active; Activity [10]: Dose-Dependent Effect
CCOC(=O)c1c(N)sc2c1CC(C)(C)CC2 | 133 | > 2 | 
Cc1ccc(C(=O)c2c(N)sc3c2CCOC3)cc1 | 118 | > 2 | 
CCOC(=O)c1c(N)sc2c1CCN(S(=O)(=O)C1CC1)C2 | 106 | > 2 | 
CCOC(=O)N1CCc2c(sc(N)c2C(=O)c2ccc(C)cc2)C1 | 98.1 | > 2 | 
CCOC(=O)c1c(N)sc2c1CCN(C(=O)OCc1ccccc1)C2 | 184 | > 2 | 
CS(=O)(=O)N1CCc2c(sc(N)c2C(=O)c2ccc(Cl)cc2)C1 | 142 | > 2 | 
Nc1sc2c(c1C(=O)c1ccc(Cl)cc1)CCN(C(=O)OCc1ccccc1)C2 | 155 | > 2 | 
CCOC(=O)c1c(N)sc2c1CCN(C1CC1)C2 | 88.3 | > 2 | 
CCOC(=O)c1c(N)sc2c1CCC(C)C2 (racemic) | 159 | > 2 | 
CCOC(=O)c1c(N)sc2c1CCN(C(C)C)C2 | 82.2 | > 2 | 
CCN1CCc2c(sc(N)c2C(=O)c2ccc(C)cc2)C1 | 99.3 | > 2 | 
Nc1sc2c(c1C(=O)c1ccc(Cl)cc1)CCOC2 | 177 | > 2 | 

SMILES | Activity [1] [%] | fold change (FC) [2] | further results
CCOC(=O)c1c(N)sc2c1CCC(C(C)(C)C)C2 (racemic) | 195 | > 2 | 
CCCC1CCc2c(sc(N)c2C(=O)OCC)C1 (racemic) | 157 | > 2 | 
CCOC(=O)c1c(N)sc2c1CCC(C(C)C)C2 (racemic) | 247 | > 2 | 
CCOC(=O)c1c(N)sc2c1CCN(C(C)=O)C2 | 147 | > 2 | 
C=CCOC(=O)N1CCc2c(sc(N)c2C(=O)OCC)C1 | 232 | > 2 | 
CC1CCc2c(sc(N)c2C(=O)c2ccc(Cl)cc2)C1 (racemic) | 128 | > 2 | 
CC(=O)N1CCc2c(sc(N)c2C(=O)c2ccc(Cl)cc2)C1 | 239 | > 2 | 
CCOC(=O)c1c(N)sc2c1CCN(CC)C2 | 94.3 | > 2 | 
CCOC(=O)c1c(N)sc2c1CCN(C(=O)OCC)C2 | 258 | > 2 | 
Cc1ccc(C(=O)c2c(N)sc3c2CCC(C)C3)cc1 (racemic) | 242 | > 2 | fold change (FC) [3]: >2; Activity [7]: Active; Activity [8]: Active; Activity [10]: Dose-Dependent Effect
CCOC(=O)c1c(N)sc2c1CCN(C(=O)OC(C)(C)C)C2 | 164 | > 2 | 
CCOC(=O)c1c(N)sc2c1CCOC2 | 86.5 | > 2 | 
CCOC(=O)N1CCc2c(sc(N)c2C(=O)c2ccc(Cl)cc2)C1 | 222 | > 2 | 
CN1CCc2c(sc(N)c2C(=O)c2ccc(Cl)cc2)C1 | 124 | > 2 | 
Nc1sc2c(c1C(=O)c1ccc(Cl)cc1)CCSC2 | 112 | > 2 | 
CCOC(=O)c1c(N)sc2c1C(C)CCC2 (racemic) | 82 | > 2 | 
Nc1sc2c(c1C(=O)c1ccccc1)CCN(S(=O)(=O)C1CC1)C2 | 131 | > 2 | 
CCOC(=O)c1c(N)sc2c1CCC(C(F)(F)F)C2 (racemic) | 183 | > 2 | 
CCOC(=O)c1c(N)sc2c1CCN(C)C2 | 75.7 | > 2 | 
Cc1ccc(C(=O)c2c(N)sc3c2CCSC3)cc1 | 92.5 | > 2 | 
